Assay results reported in article PMC10553838, “Functional and structural insights into the multi-step activation and catalytic mechanism of bacterial ExoY nucleotidyl cyclase toxins bound to actin-profilin” (PLOS Pathogens, 2023).

Tests used:
Assay type in all cases: biochemical
[1] = target: T1, Vn-ExoY (Vn-ExoY^455-863) activated by G-actin-ATP/ADP-LatB (Vibrio nigripulchritudo, UniProt A0A9P1NJI6); assay: cCMP synthesis, [alpha-33P]NTP assay; details: 2 mM CTP, MgCl2, 6 uM LatB-Mg-G-actin, pH 8.0, 30 °C; labelled compound
T1 construct: gene VIBNI_0210; ExoY effector domain of MARTX toxin, residues 3455-3863, N-terminal twin-Strep-tag with PreScission site (cleaved for crystals), E. coli BL21(DE3); with rabbit skeletal muscle G-actin; with Actin, alpha skeletal muscle

[2] = target: T2, Pa-ExoY activated by F-actin (Pseudomonas aeruginosa, UniProt O85345); assay: cGMP synthesis, [alpha-33P]NTP assay; details: 2 mM GTP, MgCl2, 3 uM Mg-F-actin, pH 8.0, 30 °C; labelled compound
T2 construct: residues 20-378, N-terminal twin-Strep-tag (ST2), E. coli BL21(DE3), 44 kDa monomer; with Actin, alpha skeletal muscle

[3] = target: T2, Pa-ExoY activated by F-actin; assay: cUMP synthesis, [alpha-33P]NTP assay; details: 2 mM UTP, MgCl2, 6 uM Mg-F-actin, pH 8.0, 30 °C; labelled compound

Nc1ccn([C@@H]2O[C@H](COP(=O)(O)OP(=O)(O)OP(=O)(O)O)[C@@H](O)[C@H]2O)c(=O)n1 [CTP]
cCMP synthesis, [alpha-33P]NTP assay [1]: cCMP synthesis catalysed by wild-type or mutants of Vn-ExoY activated by G-actin

Nc1nc2c(ncn2[C@@H]2O[C@H](COP(=O)(O)OP(=O)(O)OP(=O)(O)O)[C@@H](O)[C@H]2O)c(=O)[nH]1 [GTP]
cGMP synthesis, [alpha-33P]NTP assay [2]: cGMP synthesis catalysed by wild-type or mutants of Pa-ExoY activated by F-actin

O=c1ccn([C@@H]2O[C@H](COP(=O)(O)OP(=O)(O)OP(=O)(O)O)[C@@H](O)[C@H]2O)c(=O)[nH]1 [UTP]
cUMP synthesis, [alpha-33P]NTP assay [3]: cCMP and cUMP synthesis catalysed by wild-type or mutants of Pa-ExoY activated by F-actin
